“And” between values parts separate entries of the source, which are not always exact repeats. Identical values can stand only once.

The experiment relates to H37Rv cells. It counts as cell-based, Mycobacterium tuberculosis.

In the case of `CN(C)c1ncnc2sc(-c3c(F)c(F)c(F)c(F)c3F)nc12.Cl` [Compound 1, CN(C)c1ncnc2sc(nc12)-c1c(c(c(c(c1F)F)F)F)F], the “frequency of resistant colonies” value is 10^–7 and 10^–8.

The values are drawn from article PMC11915372, “Identification of a Series Containing a Pentafluorophenyl Moiety That Targets Pks13 to Inhibit Growth of Mycobacterium tuberculosis” (ACS Infectious Diseases, 2025).
